Experimental data reported in article PMC9312238, “Novel Organoselenium Redox Modulators with Potential Anticancer, Antimicrobial, and Antioxidant Activities” (Antioxidants, 2022).
Converted amounts (≈) assume the structure as drawn.

Experiments:
[1] = DPPH radical scavenging bioassay; assay type: biochemical
Text: (§1) The antioxidant activity was estimated by ABTS and DPPH bioassays, according to the reported literature method. More details are in the Supplementary Materials.
(§2) Recently, OSe compounds were thoroughly used as redox modulators to control many complicated diseases (e.g., cancer and neurodegenerative diseases). The DPPH and ABTS bioassays were extensively used as rapid tools for estimating the antioxidant potency of OSe compounds [50, 51]. Ascorbic acid was used as a standard control, and the antioxidant potency was measured by the ability of the compounds to decolorize the characteristic colors of the ABTS^. and DPPH^. radicals by following the colorimetric decline in absorbance at 734 and 517 nm, respectively (Figure 2).
Figure 2 Evaluation of the antioxidant properties of the OSe compounds employing the ABTS and DPPH assays. All measurements are mean ± SD. In the DPPH assay: absorbance was read after 0.5 h of mixing […] of DPPH with […] of OSe compounds (1 mM, MeOH) at 517 nm. In the ABTS assay: […] of each OSe compound (1 mM, phosphate-buffered methanol) was mixed with the ABTS solution (60 mM), and absorbance was monitored at 734 nm. […]
1.1.1. The antioxidant activity
The hydrogen atom or electron donation ability of the corresponding compounds was measured by estimating the bleaching of the purple color of a methanolic solution of DPPH [29]. This spectrophotometric assay uses stable DPPH. reagent. The sample was prepared by adding […] of the OSe compounds (1 mM in methanol) to […] DPPH in methanol. After 30 min of incubation in the dark, the absorbance was read against a blank at 517 nm. Ascorbic acid (vitamin C) and ebselen were used as standard antioxi-dants (positive control). A blank sample was run without DPPH. A negative control sam-ple was run using methanol instead of the sample. The radical scavenging activity was calculated using the following equation:
(§3) Inhibition%= (Ablank-Asample)/(Ablank)*100. (1)

[2] = ABTS radical scavenging bioassay; assay type: biochemical
Text: as §1, §2
Figure 2 Evaluation of the antioxidant properties of the OSe compounds employing the ABTS and DPPH assays. All measurements are mean ± SD. In the DPPH assay: absorbance was read after 0.5 h of mixing […] of DPPH with […] of OSe compounds (1 mM, MeOH) at 517 nm. In the ABTS assay: […] of each OSe compound (1 mM, phosphate-buffered methanol) was mixed with the ABTS solution (60 mM), and absorbance was monitored at 734 nm.
The antioxidant activity of the investigated compounds was assessed using 2,2’-az-ino-bis(3-ethylbenzothiazoline-6-sulphonic acid (ABTS) method. The radical cation derived from ABTS was prepared by the reaction of 60 mM ABTS solution with 0.3 M manganese dioxide solution in 0.1M phosphate buffer, pH 7. Then, the mixture was shaken, centrifuged, filtered, and the absorbance (Acontrol) of the resulting green-blue solu-tion (ABTS radical solution) was measured at wavelength 734 nm. Then, […] of 1 mg/ml test compound in phosphate-buffered methanol was added. The absorbance (Atest) was measured. The reduction in color intensity was expressed as % inhibition. The % inhibi-tion for each compound is calculated from the following equation
Inhibition% = (Acontrol-Asample)/(Acontrol)*100
Ascorbic acid (vitamin C) was used as a standard antioxidant (positive control). A blank sample was run without ABTS and using MeOH/phosphate buffer (1:1) instead of the sample. A negative control sample was run with MeOH/phosphate buffer (1:1) instead

[3] = test system: HepG2 cells; test: cells; assay type: cell-based, human
Description: (§4) Cells were obtained from the ATCC Company (VACSERA), Cairo, Egypt. MTT assay were performed according to the literature method. More details are in the Supporting Information.
(§5) Recently, OSe compounds gained much attention as possible drug candidates due to their various pharmacological properties. Our group has reported several OSe candidates with potential anticancer, antimicrobial, and antioxidant activities. Therefore, the anticancer attributes of the newly prepared OSe compounds were estimated using the MTT assay against MCF-7 and HepG2 and compared with their respective cytotoxicity in WI-38 primary cells. The anthracycline drug doxorubicin was used as the standard. The minimal inhibition concentration required to kill 50% of the cells (IC50) was calculated from dose-response curves presented in Table 1. Moreover, the therapeutic index (TI) was also calculated (according to Equation (1)), which is considered a measure of the selectivity and safety of the synthesized compounds. (1) TI=IC50 for the normal WI38 cells/IC50 for the cancer cells […]
(§6) 1.1. The biological assays
(§7) 1.1.1. The anticancer activity
The breast adenocarcinoma (MCF-7), Hepatocellular carcinoma (HEPG-2), and nor-mal fibroblast (WI-38) cells were obtained from ATCC via Holding company for biological products and vaccines (VACSERA), Cairo, Egypt. The reagents RPMI-1640 medium, MTT, DMSO, and fetal bovine serum was obtained from Sigma Aldrich. Dulbecco’s modified Eagle’s medium was used as the culture medium for the cells, and the cytotoxicity was evaluated using the reported MTT assay. Doxorubicin was used as the positive reference, and the IC50 values were obtained from the corresponding dose-response curve.
This colorimetric assay is based on converting the yellow tetrazolium bromide (MTT) to a purple formazan derivative by mitochondrial succinate dehydrogenase in viable cells.
(§8) Cell lines were cultured in RPMI-1640 medium with 10% fetal bovine serum. Antibiotics added were 100 units/ml penicillin and 100µg/ml streptomycin at 37 C in a 5% Co2 incu-bator. The cell lines were seeded in a 96-well plate at a density of 1.0x10^4 cells/well. at 37 C for 48 h under 5% Co2. After incubation, the cells were treated with different concentra-tions of compounds and incubated for 24 h. After 24 h of drug treatment, 20 µl of MTT solution at 5mg/ml was added and incubated for 4 h. Finally, dimethyl sulfoxide (DMSO) in the volume of 100 µl is added to each well to dissolve the purple formazan formed. The colorimetric assay is measured and recorded at an absorbance of 570 nm using a plate reader (EXL 800, USA). The percentage of the relative cell viability was calculated as (A570 of treated samples/A570 of the untreated sample) X 100. […]
as §3

[4] = test system: Staphylococcus aureus; test: Agar diffusion assay, S. aureus; assay type: cell-based; conditions: Staphylococcus aureus; inhibition zone diameter, six-mm disks soaked with 20 μM of compound; read-out: S. aureus IZD (mm)
Description: (§9) The antimicrobial activities of the OSe compounds were evaluated against C. albicans yeast, as well as E. coli and S. bacteria, employing the agar well diffusion assay. Furthermore, the MICs (in µM) were determined by the microdilution method according to the reported protocol. More details are in the Supporting Information.
(§10) Compounds were evaluated for their antimicrobial activity against the Gram-negative bacteria Escherichia coli (E. coli) and the Gram-positive bacteria Staphylococcus aureus (S. aureus), as well as the Candida albicans (C. albicans) fungal strain, using the agar diffusion assay. Ampicillin and clotrimazole were used as standards. Indeed, the antimicrobial properties of the OSe compounds were also obtained from the activity index percentage (A%) according to Equation (2). (2) A%=Zone of inhibition by test compound diametre/Zone of inhibition by standard diametre×100 . […]
(§11) 1.1.1. The antimicrobial activity
(§12) The antimicrobial activities of the OSe compounds were evaluated against C. albicans yeast as well as E. coli gram-negative and S. aureus gram-positive bacteria employing the agar well diffusion assay. Briefly, a concentration of 1 mM was prepared for each compound by dissolving in DMSO. Paper discs of standard size […] were steri-lized in an autoclave and soaked in 20 µL of the test compounds, and placed in the Petri dishes, which in turn contain a nutrient media (agar 20 g, peptone 5 g, and beef extract 3 g) seeded with the dedicated strain. Incubation lasted for 24 h at 36
(§13) Furthermore, the MICs (in µM) were determined by the microdilution method according to the reported protocol. […]
as §3

[5] = test system: Escherichia coli; test: Agar diffusion assay, E. coli; assay type: cell-based
[6] = test system: WI-38 cells; test: cells; assay type: cell-based, human; conditions: Homo sapiens; MTT, 24 h incubation, normal WI-38 cells; read-out: WI38 IC50
Description: as §4
as §5, with “Our group has reported several OSe candidates with potential anticancer, antimicrobial, and antioxidant activities.” left out, “The minimal inhibition concentration required to kill 50% of the cells (IC50) was calculated from dose-response curves presented in Table 1.” left out
as §6, §7
(§14) The breast adenocarcinoma (MCF-7), Hepatocellular carcinoma (HEPG-2), and nor-mal fibroblast (WI-38) cells were obtained from ATCC via Holding company for biological products and vaccines (VACSERA), Cairo, Egypt.
(§15) DMSO, and fetal bovine serum was obtained from Sigma Aldrich. Dulbecco’s modified Eagle’s medium was used as the culture medium for the cells, and the cytotoxicity was evaluated using the reported MTT assay. Doxorubicin was used as the positive reference, and the IC50 values were obtained from the corresponding dose-response curve.
(§16) This colorimetric assay is based on converting the yellow tetrazolium bromide (MTT) to a purple formazan derivative by mitochondrial succinate dehydrogenase in viable cells. […]
as §8, with “added” for “Cell lines were cultured in RPMI-1640 medium with 10% fetal bovine serum. Antibiotics added”, “plate” for “plate reader (EXL 800, USA). The percentage of the relative cell viability was calculated as (A570 of treated samples/A570 of the untreated sample) X 100.”
(§17) The percentage of the relative cell viability was calculated as (A570 of treated samples/A570 of the untreated sample) X 100. […]

[7] = test system: MCF-7 cells; test: cells; assay type: cell-based, human
Description: as §4
as §5, with “Our group has reported several OSe candidates with potential anticancer, antimicrobial, and antioxidant activities.” left out, “The minimal inhibition concentration required to kill 50% of the cells (IC50) was calculated from dose-response curves presented in Table 1.” left out
as §6, §7, §14, §15, §16
as §8, with “added” for “Cell lines were cultured in RPMI-1640 medium with 10% fetal bovine serum. Antibiotics added”, “plate” for “plate reader (EXL 800, USA). The percentage of the relative cell viability was calculated as (A570 of treated samples/A570 of the untreated sample) X 100.”
as §17

[8] = test system: Candida albicans; test: microbe, parasite or virus in culture; assay type: cell-based; parameters: C. albicans A% (activity index): concentration or dose not given beside the values; conditions: for zone of inhibition at 20 µM: Candida albicans, inhibition zone diameter, six-mm disks soaked with 20 μM of compound, read-out: C. albicans IZD (mm); for C. albicans A% (activity index): zone of test compound / zone of standard (clotrimazole) x 100
Description: as §9, §10, §11
The antimicrobial activities of the OSe compounds were evaluated against C. albicans yeast as well as E. coli gram-negative and S. aureus gram-positive bacteria employing the agar well diffusion assay. […]
compound by dissolving in DMSO. […]
Petri dishes, which in turn contain a nutrient media (agar 20 g, peptone 5 g, and beef extract 3 g) seeded with the dedicated strain. Incubation lasted for 24 h at 36
as §13, §3

[9] = test system: Candida albicans; test: MIC by microdilution, C. albicans; assay type: cell-based; conditions: Candida albicans; microdilution; read-out: MIC (μM) C. albicans
Description: as §9, with “Information. […]” for “Information.”
as §11, §12, §13, §3

[10] = concentration decreasing absorbance by 50%

Compound	radical scavenging activity, DPPH assay ([1]; compound 1 mM in MeOH, read after 0.5 h at 517 nm) [%]	IC50 [1, 10] [µM]	radical scavenging activity, ABTS assay ([2]; compound 1 mM in phosphate-buffered methanol, 734 nm) [%]	IC50 [2, 10] [µM]	IC50 ([3]; Homo sapiens, MTT, 24 h incubation, HepG2 cells, read-out: HepG2 IC50) [µM]	HepG2 TI (IC50 WI-38 / IC50 HepG2) ([3]; therapeutic index, ratio of WI-38 IC50 to HepG2 IC50)	zone of inhibition at 20 µM [4] [mm]	zone of inhibition at 20 µM ([5]; Escherichia coli, inhibition zone diameter, six-mm disks soaked with 20 μM of compound, read-out: E. coli IZD (mm)) [mm]	E. coli A% (activity index) ([5]; zone of test compound / zone of standard (ampicillin) x 100) [%]	IC50 [6] [µM]	IC50 ([7]; Homo sapiens, MCF7, MTT, 24 h incubation, MCF-7 cells, read-out: MCF7 IC50) [µM]	MCF7 TI (IC50 WI-38 / IC50 MCF-7) ([7]; therapeutic index, ratio of WI-38 IC50 to MCF-7 IC50)	zone of inhibition at 20 µM [8] [mm]	C. albicans A% (activity index) [8] [%]	melting point [°C]	MIC [9] [µM]
O=C1O[C@H]([C@@H](O)CO)C(O)=C1O [Vitamin C, Ascorbic acid, reference compound]	95	19.18 ± 0.13	88	28.16 ± 0.19												
CC(=O)Nc1ccc([Se]CC(=O)Nc2ccccc2)cc1 [Compound 18, 2-((4-acetamidophenyl)selanyl)-N-phenylacetamide]					47.6 ± 2.8	1.8	8	6	26	85.1 ± 4.7	43.5 ± 2.6	2	11	46	161 to 162	
Clc1ccccc1C(c1ccccc1)(c1ccccc1)n1ccnc1 [Clotrimazole, clotrimazole, reference compound]													24	100		2 (≈ 0.69 µg/mL)
